The values below come from patent publication US9029414B2, “Triterpenoid compounds and methods of use thereof” (Biotechnology Research Corporation, priority 2008, dated 2015).

Broadly, the inhibition is the share of the control response that was lost under treatment.

The target in test [1] is EP2 receptor (Homo sapiens, UniProt P43116). As to the kind of experiment: Radioligand competition binding assay, EP2. The following applies: EP2, target PGE2; compound at 10 μM in duplicate; read-out: % inhibition of control specific binding. As for the experimental part:
(§1) DA001 was further evaluated against 32 receptor binding assays. Radioligand competition assays were conducted whereby DA001 was tested at one concentration (10 uM) in duplicate. […] It could compete with the radioligand [^3H] PGE2 binding at the EP1 and EP4 receptors, and weakly competed with the EP2 and FP receptors.
(§2) To determine the targets of DA compounds, the compound was assessed in binding assays for the family of prostanoid receptors. Both compounds were tested at a single concentration (10 μM) in duplicate. DA001 and DA021 inhibit the ligand binding of prostaglandin E2 receptors EP1, EP2 and EP4 and moderately to prostaglandin (PGF) to its receptor (FP), but not prostaglandin I (PGI2), thromoboxane A and prostaglandin D2 to their receptors.
For orientation: In a radioligand displacement assay an active substance lowers the binding of a labelled ligand.

Test [2] has as its target TP receptor (Homo sapiens, UniProt P21731). Kind of test: Radioligand competition binding assay, TP. The following applies: target Thromoboxanes A, compound at 10 μM in duplicate, read-out: % inhibition of control specific binding. The method, then: as §1, §2
Test [3] relates to cortical neurons. Kind of test: Cortical neuron survival assay against NMDA excitotoxicity (LDH). The test is classed as cell-based, Sprague-Dawley rats. To be noted: 30 μM 24 hrs, NMDA 10-200 μM 20 min; at high concentrations of NMDA. As for the experimental part:
FIG. 12. Derivatives of DA001 rescue the cortical neurons from NMDA excitotoxicity. Cortical neurons were treated with compounds derived from of DA001 (30 μM) 24 hours prior to NMDA treatment. LDH released into the medium were measured 24 hours after NMDA treatment. Data are expressed as mean±s.e.m. and compared to solvent control (DMSO). *=P<0.05.
Hippocampal neurons/cortical neurons were prepared from embryonic day 18 Sprague-Dawley rats. […] Afterwards, cells were incubated in growth medium for 18-24 hours and detected with Cytotoxicity Detection Kit (1644793, Roche).
Cortical neurons were treated with DA021 or DA034 and subsequently subjected to varying concentrations of NMDA. […] LDH release into the medium was then measured.
Compounds with strong protective effect (>80% survival) against NMDA excitotoxicity are prototype DA001, derivatives DA010, DA021, DA034, DA040, DA081 and DA088. […] LDH released into the medium were measured 24 hours after NMDA treatment. Data are expressed as averaged percentage of cell survival (±s.e.m) calculated against solvent control (DMSO) and compared to no NMDA control (set as 100% survival). […]

Chain of EP2 receptor (P43116 whole entry): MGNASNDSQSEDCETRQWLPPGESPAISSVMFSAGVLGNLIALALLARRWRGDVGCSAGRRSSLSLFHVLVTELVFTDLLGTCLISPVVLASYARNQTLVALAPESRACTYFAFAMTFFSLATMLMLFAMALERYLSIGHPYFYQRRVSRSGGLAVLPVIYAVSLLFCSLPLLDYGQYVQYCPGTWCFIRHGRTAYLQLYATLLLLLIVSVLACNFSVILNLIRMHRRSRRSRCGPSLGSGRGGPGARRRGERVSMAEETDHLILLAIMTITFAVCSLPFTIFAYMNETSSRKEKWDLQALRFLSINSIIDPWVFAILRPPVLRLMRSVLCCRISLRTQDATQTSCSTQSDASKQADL
Chain of TP receptor (P21731 whole entry): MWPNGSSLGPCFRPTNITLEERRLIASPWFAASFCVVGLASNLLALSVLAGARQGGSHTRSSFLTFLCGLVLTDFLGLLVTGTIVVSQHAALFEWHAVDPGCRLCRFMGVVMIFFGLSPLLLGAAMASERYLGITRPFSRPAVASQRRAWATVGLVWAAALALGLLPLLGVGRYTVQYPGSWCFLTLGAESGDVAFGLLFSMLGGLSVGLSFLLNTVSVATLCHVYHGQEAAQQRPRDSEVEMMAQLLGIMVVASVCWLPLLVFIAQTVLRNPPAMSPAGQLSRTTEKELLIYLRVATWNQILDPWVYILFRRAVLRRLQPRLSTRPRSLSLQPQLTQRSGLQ

`C=C(C)[C@@H]1CC[C@]2(C(=O)O)CC[C@]3(C)C(CC[C@@H]4[C@@]5(C)CC[C@H](O[C@@H]6OC[C@H](O)[C@H](O)[C@H]6O[C@@H]6O[C@@H](C)[C@H](O)[C@@H](O)[C@H]6O)[C@@](C)(CO)[C@@H]5CC[C@]43C)[C@@H]12` (stereo partly drawn) [DA001, 3-O-[α-L-rhamnopyranosyl-(1→2)-α-L-arabinopyranosyl]-3,23-dihydroxy-20(29)-lupen-28-oic acid]: the inhibition at 10 µM in test [1] worked out at 31%; in test [2], 17%.

Regarding `C=C(C)[C@@H]1CC[C@]2(/C=N/O)CC[C@]3(C)C(CCC4[C@@]5(C)CCC(=O)[C@@](C)(CO)[C@@H]5CC[C@]43C)C12` (stereo partly drawn) [DA021], the “cell death (LDH release) vs DMSO control” value in test [3] is given as “significant reduction in cell death”. Also, the inhibition at 10 µM turned out to be 42% in test [1] and 17% in test [2].

For `CC(=O)OC[C@]12CC[C@@H](C3(C)CO3)C1C1CCC3[C@@]4(C)CC[C@H](O)[C@@](C)(CO)[C@@H]4CC[C@@]3(C)[C@]1(C)CC2` (stereo partly drawn) [DA034], in test [3], the “cell death (LDH release) vs DMSO control” value is recorded as “significant reduction in cell death”.
